Reference: publication PMC5331433, “Ustiloxin G, a New Cyclopeptide Mycotoxin from Rice False Smut Balls” (Toxins, 2017)

How the values were obtained:
HCT116 = assay: Cytotoxicity, MTT assay, HCT116; format: cell-based, human; conditions: colon cancer cells, 24 h treatment, absorbance 570 nm, three replicates
Method: (§1) Cytotoxicity of the compounds were tested against human carcinoma cells using the microculture methyl-thiazolyl-tetrazolium (MTT) assay as described previously. Briefly, the cell lines were maintained in a humidified atmosphere containing 5% CO2 at 37 °C. For preparing working solution, 1 μmol of each purified ustiloxin was dissolved in 10 mL of ultrapure water to obtain the stock solution (100 μM), which was further diluted to a series of concentrations (50, 25, 12.5, 6.25, 3.125, 1, 0.1, 1 × 10^−2, 1 × 10^−3, 1 × 10^−4, 1 × 10^−5 μM) with ultrapure water. Normally, 200 μL of the cell suspensions (5 × 10^4 cells/mL) was plated in 96-well culture plates at 37 °C. After 12 h, 20 μL of working solution was added to each well respectively and cultured at 37 °C for 24 h. Then, MTT was dissolved in saline to 5 mg/mL, and 20 μL of this solution was added to each well. After 4 h, the medium was removed, and then 100 μL of DMSO was added to dissolve any formazan crystals formed. Absorbance was then determined at 570 nm. The cell lines of colon cancer cells (HCT-116), non-small-cell lung carcinoma cells (NCI-H1650), gastric cancer cells (BGC-823), and liver hepatocellular carcinoma cells (HepG2) were tested for all isolated compounds. In addition, lung adenocarcinoma cells (A549) were tested on ustiloxins A (2), B (3), and G (1), and melanoma cells (A375) were tested on ustiloxin G (1). Ultrapure water and taxol were used as the negative and positive controls, respectively. All experiments were performed with three replicates.

HepG2 = assay: Cytotoxicity, MTT assay, HepG2; format: cell-based, human; conditions: liver hepatocellular carcinoma cells, 24 h treatment, absorbance 570 nm, three replicates
Method: as §1

[1] = tested on: rice (Oryza sativa) seeds, germ; assay: Inhibition of germ elongation of rice seeds; conditions: 48 h, 25 °C, dark, mean of triplicate ± SD
Method: (§2) Phytotoxicity of the compounds was evaluated by their inhibitory activities on the radicle and germ elongation of rice (Oryza sativa) seeds. Two varieties (Lijiang and Zhonghua 11) of the seeds, which were obtained from Prof. Zejian Guo (Department of Plant Pathology and collected in 2015, China Agricultural University) were used.
(§3) The bioassay was performed using the method described previously with some modifications. Briefly, five 3-day germinated rice seeds of each rice variety were sown onto each well of a 24-well plate, containing 200 μL of working solution. For preparing working solution, 1 mg of each purified compound was dissolved in 1 mL of ultrapure water to obtain the stock solution (1 mg/mL), which was further diluted to a series of concentrations (200, 100, 50, 20, and 10 μg/mL) with ultrapure water. The ultrapure water was used as the negative control, and glyphosate (N-(phosphonomethyl)glycine) at the same concentrations as the positive control. Plates were incubated in a moist chamber at 25 °C in the dark. The length of each radicle or germ was measured after treatment for 48 h. The inhibition of radicle or germ elongation was calculated as follows: Inhibition (%) = [(Lc − Lt)/Lc] × 100, where Lc is the radicle or germ length of the control group, and Lt is the length of the treated group.
(§4) All experiments were performed with three replicates, and the results were represented by their mean values and the standard deviations (SD). The data were carried out using analysis of variance (one-way ANOVA) to detect significant differences by PROC ANOVA of SAS version 8.2.

[2] = tested on: rice (Oryza sativa) seeds, radicle; assay: Inhibition of radicle elongation of rice seeds; conditions: 48 h, 25 °C, dark, mean of triplicate ± SD
Method: as §2, §3, §4

A549 = assay: Cytotoxicity, MTT assay, A549; format: cell-based, human; conditions: lung adenocarcinoma cells, 24 h treatment, absorbance 570 nm, three replicates
Method: as §1

rice seedlings = assay: Abnormal swelling of roots and germs of rice seedlings; design: species or system Oryza sativa; conditions: observation in words; Figure 3B shows 200 µg/mL of ustiloxin G, variety Lijiang
Method: as §3

BGC-823 = assay: Cytotoxicity, MTT assay, BGC-823; format: cell-based, human; conditions: gastric cancer cells, 24 h treatment, absorbance 570 nm, three replicates
Method: as §1

NCI-H1650 = assay: Cytotoxicity, MTT assay, NCI-H1650; format: cell-based, human; conditions: non-small-cell lung carcinoma cells, 24 h treatment, absorbance 570 nm, three replicates
Method: as §1

| Compound | Inhibition Ratio (%) Seed Germ Var. Lijiang ([1]; 10 µg/mL) | Inhibition Ratio (%) Seed Germ Var. Zhonghua 11 ([1]; 10 µg/mL) | Inhibition Ratio (%) Seed Germ Var. Lijiang ([1]; 20 µg/mL) | Inhibition Ratio (%) Seed Germ Var. Zhonghua 11 ([1]; 20 µg/mL) | Inhibition Ratio (%) Seed Germ Var. Lijiang ([1]; 50 µg/mL) | Inhibition Ratio (%) Seed Germ Var. Zhonghua 11 ([1]; 50 µg/mL) | Inhibition Ratio (%) Seed Germ Var. Lijiang ([1]; 100 µg/mL) | Inhibition Ratio (%) Seed Germ Var. Zhonghua 11 ([1]; 100 µg/mL) | Inhibition Ratio (%) Seed Germ Var. Lijiang ([1]; 200 µg/mL) | Inhibition Ratio (%) Seed Germ Var. Zhonghua 11 ([1]; 200 µg/mL) | Inhibition Ratio (%) Seed Radicle Var. Lijiang ([2]; 10 µg/mL) | Inhibition Ratio (%) Seed Radicle Var. Zhonghua 11 ([2]; 10 µg/mL) | Inhibition Ratio (%) Seed Radicle Var. Lijiang ([2]; 20 µg/mL) | Inhibition Ratio (%) Seed Radicle Var. Zhonghua 11 ([2]; 20 µg/mL) | Inhibition Ratio (%) Seed Radicle Var. Lijiang ([2]; 50 µg/mL) | Inhibition Ratio (%) Seed Radicle Var. Zhonghua 11 ([2]; 50 µg/mL) | Inhibition Ratio (%) Seed Radicle Var. Lijiang ([2]; 100 µg/mL) | Inhibition Ratio (%) Seed Radicle Var. Zhonghua 11 ([2]; 100 µg/mL) | Inhibition Ratio (%) Seed Radicle Var. Lijiang ([2]; 200 µg/mL) | Inhibition Ratio (%) Seed Radicle Var. Zhonghua 11 ([2]; 200 µg/mL) | further results |
| --- | --- | --- | --- | --- | --- | --- | --- | --- | --- | --- | --- | --- | --- | --- | --- | --- | --- | --- | --- | --- | --- |
| CC[C@@]1(C)Oc2cc(c([S+]([O-])C[C@@H](O)C[C@H](N)C(=O)O)cc2O)[C@@H](O)[C@H](NC)C(=O)N[C@@H](C)C(=O)N[C@@H]1C(=O)NCC(=O)O (stereo partly drawn) [Ustiloxin B (3), ustiloxin B] | 13.54% | 3.30% | 20.63% | 12.02% | 37.98 ± 3.83 e % | 35.60% | 49.65 ± 2.13 d % | 44.72% | 64.39% | 55.61 ± 2.75 a % | 4.16 ± 0.66 l % | 11.90 ± 6.45 l % | 14.27% | 20.22% | 53.24 ± 4.98 e % | 54.78 ± 3.09 d % | 86.62 ± 1.98 b % | 87.80% | 95.32 ± 1.32 a % | 93.04 ± 2.10 a % | IC50 (HCT116): 7.2 µM; IC50 (HepG2): 13 µM; IC50 (A549): > 50 µM; abnormal swelling of the roots and germs of rice seedlings (rice seedlings): abnormal swelling; IC50 (BGC-823): 1.03 µM; IC50 (NCI-H1650): 21.6 µM |
| CC[C@@]1(C)Oc2cc(ccc2O)[C@@H](O)[C@H](NC)C(=O)N[C@@H](C(C)C)C(=O)N[C@@H]1C(=O)NCC(=O)O [Ustiloxin D (4), ustiloxin D] | 10.73% | 10.98% | 11.67% | 12.28% | 11.87% | 16.19% | 19.92% | 25.48% | 38.76 ± 5.68 e % | 31.86% | 4.43 ± 5.47 l % | 13.55% | 5.42 ± 3.45 l % | 23.31% | 11.89% | 41.47 ± 4.88 e % | 79.92 ± 6.26 c % | 90.79 ± 0.94 a % | 94.92 ± 0.79 a % | 93.90 ± 2.11 a % | IC50 (HCT116): > 50 µM; IC50 (HepG2): > 50 µM; IC50 (BGC-823): > 50 µM; IC50 (NCI-H1650): > 50 µM |
| CC[C@@]1(C)Oc2cc(ccc2O)[C@@H](O)[C@H](NC)C(=O)N[C@@H](C)C(=O)N[C@@H]1C(=O)NCC(=O)O [Ustiloxin F (5), ustiloxin F] | 7.07% | 1.89 ± 4.86 p % | 7.90 ± 4.3 k1% | 9.36% | 9.14% | 14.97% | 15.16% | 17.77% | 24.57% | 18.71% | 5.07 ± 4.95 l % | 0.75% | 8.97% | 9.59 ± 3.80 l % | 22.17% | 16.51% | 26.72 ± 5.84 h % | 23.78% | 38.25% | 36.83% | IC50 (HCT116): > 50 µM; IC50 (HepG2): > 50 µM; IC50 (BGC-823): > 50 µM; IC50 (NCI-H1650): > 50 µM |
| O=C(O)CNCP(=O)(O)O [Glyphosate, N-(phosphonomethyl)glycine, reference compound] | 20.99% | 21.16% | 37.82 ± 4.05 e % | 29.21% | 59.32 ± 5.06 c % | 35.36% | 68.21% | 57.60 ± 3.44 a % | 71.36 ± 2.68 a % | 58.93 ± 6.04 a % | 36.84 ± 2.91 g % | 28.24% | 62.91 ± 5.03 d % | 41.52 ± 5.20 e % | 85.08% | 68.88 ± 3.85 c % | 93.64 ± 2.66 a % | 81.05 ± 2.04 b % | 95.61 ± 2.74 a % | 87.72% |  |
| CC[C@@]1(C)Oc2cc(c([S+]([O-])C[C@@H](O)C[C@H](N)C(=O)O)cc2O)[C@@H](O)[C@H](NC)C(=O)N[C@@H](C(C)C)C(=O)N[C@@H]1C(=O)NCC(=O)O (stereo partly drawn) [Ustiloxin A (2), ustiloxin A] | 11.38% | 13.25% | 18.00% | 26.59% | 39.01 ± 6.84 e % | 42.04% | 50.59 ± 6.36 d % | 45.47% | 60.27% | 52.33% | 17.83% | 12.27 ± 6.71 l % | 43.57 ± 0.61 f % | 56.16 ± 2.30 d % | 87.38 ± 0.79 b % | 89.14 ± 4.38 a % | 94.53 ± 0.36 a % | 93.72 ± 0.54 a % | 96.64 ± 0.36 a % | 95.29 ± 1.63 a % | IC50 (HCT116): > 50 µM; IC50 (HepG2): > 50 µM; IC50 (A549): 3.12 µM; abnormal swelling of the roots and germs of rice seedlings (rice seedlings): abnormal swelling; IC50 (BGC-823): 2.66 µM; IC50 (NCI-H1650): > 50 µM |
